Results published in US20250171465A1, “AKT INHIBITORS” (Stablix, Inc., priority 2023, published 2025).

Each compound was assayed on KU1919.1 (assay: Cell Titer Glo (CTG) proliferation assay, KU1919). Settings: Homo sapiens, KU-19-19; KU1919.1 cells, 72.0 hrs.; read-out: AVE CTG Proliferation KU1919.1 72.0 hrs.
Type: cell-based
Description: Seed cells in 40 μL of cell culture media into each well of 384-well cell culture plate, spin them at room temperature at 1,000 RPM for 1 minute and then transfer the plates into 37° C. 5% CO2 incubator overnight. Next day, treat cells with 40 nL of diluted compound and return to incubator. After compound treatment for 3 days, Add 30 μL of CellTiter-Glo reagent (Promega) into each well to be detected. Then place the plates at room temperature for 30 min followed by reading on EnVision. Inhibition activity calculated as % DMSO=100×(LumSample-Lum low control)/(Lum high control-Lum low control) where high control is from cells treated with 0.1% DMSO and Low control obtained from PBS only. Use XLFit (equation 201) to calculate IC50 (A+ ((B−A)/(1[…]((x/C)^D)))) where A: Bottom, B: Top, C: IC50, D: Slope.
Compound `CCc1cccc(-c2cnc(C(=O)N3CCN(CC4CCN(CC(=O)NCCNC[C@@H](C(=O)N5CCN(c6ncnc7c6[C@H](C)C[C@H]7O)CC5)c5ccc(Cl)cc5)CC4)CC3)c(NC(=O)CNCc3ccncn3)c2)c1` [Compound I-166] has an IC50 of 1000 to 5000 nM. `CCc1cccc(-c2cnc(C(=O)NCCOCCNCC[C@H](NC(=O)C3(N)CCN(c4ncnc5[nH]ccc45)CC3)c3ccc(Cl)cc3)c(NC(=O)CN3CCOCC3)c2)c1` [Compound I-178] gave an IC50 of 1000 to 5000 nM. `NC1(C(=O)N[C@@H](CCN2CCC(OC3CCN(C(=O)[C@H](NC(=O)c4ccc(C5CCN(C(=O)CNCc6ccc(F)cc6F)CC5)cc4)C4CCCCC4)CC3)CC2)c2ccc(Cl)cc2)CCN(c2ncnc3[nH]ccc23)CC1` [Compound I-220] showed an IC50 of 1000 to 5000 nM. Compound `NC1(C(=O)N[C@@H](CCN2CCC(OC3CCN(C(=O)[C@H](NC(=O)c4cc(C5CCCN(C(=O)C6CC6)C5)ccc4F)C4CCCCC4)CC3)CC2)c2ccc(Cl)cc2)CCN(c2ncnc3[nH]ccc23)CC1` (some centres unmarked) [Compound I-221] has an IC50 of 1000 to 5000 nM. `NC1(C(=O)N[C@@H](CCN2CCC(OC3CCN(C(=O)[C@H](NC(=O)c4cc(C5CCCN(C(=O)CNCc6ccc(F)cc6F)C5)ccc4F)C4CCCCC4)CC3)CC2)c2ccc(Cl)cc2)CCN(c2ncnc3[nH]ccc23)CC1` (some centres unmarked) [Compound I-222] was tested, and the IC50 was 1000 to 5000 nM. `NC1(C(=O)N[C@@H](CCNS(=O)(=O)CCCCNC(=O)[C@H](NC(=O)c2cccc(C3CN(C(=O)C4CC4)C3)c2)C2CCCCC2)c2ccc(Cl)cc2)CCN(c2ncnc3[nH]ccc23)CC1` [Compound I-228] was tested, and the IC50 was over 10000 nM. `NC1(C(=O)N[C@@H](CCN2CCN(C(=O)CN3CCC(OC4CCN(C(=O)[C@H](NC(=O)c5ccc(C6CN(C(=O)C7CC7)C6)cc5)C5CCCCC5)CC4)CC3)CC2)c2ccc(Cl)cc2)CCN(c2ncnc3[nH]ccc23)CC1` [Compound I-229] gave an IC50 of 1000 to 5000 nM. With `NC1(C(=O)N[C@@H](CCN2CCC(OC3CCN(C(=O)[C@H](NC(=O)c4ccc(C5CCN(C(=O)C6CC6)CC5)cc4)C4CCCCC4)CC3)CC2)c2ccc(Cl)cc2)CCN(c2ncnc3[nH]ccc23)CC1` [Compound I-231] the IC50 was 1000 to 5000 nM. `NC1(C(=O)N[C@@H](CCN2CCN(C(=O)C34CCC(CN5CCN(C(=O)[C@H](NC(=O)c6cccc(C7CCCN(C(=O)C8CC8)C7)c6)C6CCCCC6)CC5)(CC3)OC4)CC2)c2ccc(Cl)cc2)CCN(c2ncnc3[nH]ccc23)CC1` (some centres unmarked) [Compound I-232] gave an IC50 of over 10000 nM. With `NC1(C(=O)N[C@@H](CCN2CCN(C(=O)CN3CCC(CN4CCN(C(=O)c5cccc(C6CCCN(C(=O)C7CC7)C6)c5)CC4)CC3)CC2)c2ccc(Cl)cc2)CCN(c2ncnc3[nH]ccc23)CC1` (some centres unmarked) [Compound I-233] the IC50 was 5000 to 10000 nM. Work on `NC1(C(=O)N[C@@H](CCNS(=O)(=O)CCCCNC(=O)[C@H](NC(=O)c2cccc(C3CCCN(C(=O)C4CC4)C3)c2)C2CCCCC2)c2ccc(Cl)cc2)CCN(c2ncnc3[nH]ccc23)CC1` (some centres unmarked) [Compound I-234] yielded an IC50 of over 10000 nM. `NC1(C(=O)N[C@@H](CCOCCN2CCC(OC3CCN(C(=O)[C@H](NC(=O)c4cccc(C5CCCN(C(=O)CNCc6ccc(F)cc6F)C5)c4)C4CCCCC4)CC3)CC2)c2ccc(Cl)cc2)CCN(c2ncnc3[nH]ccc23)CC1` (some centres unmarked) [Compound I-236] showed an IC50 of 500 to 1000 nM. Work on `NC1(C(=O)N[C@@H](CCNC(=O)[C@H](NC(=O)C2CC2)C2CCCCC2)c2ccc(Cl)cc2)CCN(c2ncnc3[nH]ccc23)CC1` [Compound I-237] yielded an IC50 of 5000 to 10000 nM. With `NC1(C(=O)N[C@@H](CCNS(=O)(=O)CCCCNC(=O)[C@H](NC(=O)c2cccc(C3CN(C(=O)CNCc4ccc(F)cc4F)C3)c2)C2CCCCC2)c2ccc(Cl)cc2)CCN(c2ncnc3[nH]ccc23)CC1` [Compound I-238] the IC50 was over 10000 nM. For `NC1(C(=O)N[C@@H](CCNS(=O)(=O)CCCCNC(=O)[C@H](NC(=O)c2cccc(C3CCCN(C(=O)CNCc4ccc(F)cc4F)C3)c2)C2CCCCC2)c2ccc(Cl)cc2)CCN(c2ncnc3[nH]ccc23)CC1` (some centres unmarked) [Compound I-239], the IC50 was over 10000 nM. Compound `NC1(C(=O)N[C@@H](CCN2CCC(OC3CCN(C(=O)[C@H](NC(=O)c4cccc(C5CN(C(=O)C6CC6)C5)c4)C4CCCCC4)CC3)CC2)c2ccc(Cl)cc2)CCN(c2ncnc3[nH]ccc23)CC1` [Compound I-243] has an IC50 of 1000 to 5000 nM. Compound `NC1(C(=O)N[C@@H](CCN2CCC(OC3CCN(C(=O)[C@H](NC(=O)c4cccc(C5CN(C(=O)CNC6CC6)C5)c4)C4CCCCC4)CC3)CC2)c2ccc(Cl)cc2)CCN(c2ncnc3[nH]ccc23)CC1` [Compound I-244] has an IC50 of 1000 to 5000 nM. `NC1(C(=O)N[C@@H](CCN2CCC(OC3CCN(C(=O)[C@H](NC(=O)c4cccc(C5CN(C(=O)CNCc6ccc(F)cc6F)C5)c4)C4CCCCC4)CC3)CC2)c2ccc(Cl)cc2)CCN(c2ncnc3[nH]ccc23)CC1` [Compound I-245] showed an IC50 of 500 to 1000 nM. Work on `NC1(C(=O)N[C@@H](CCN2CCN(C(=O)C34CCC(CN5CCN(C(=O)c6cccc(C7CCCN(C(=O)C8CC8)C7)c6)CC5)(CC3)OC4)CC2)c2ccc(Cl)cc2)CCN(c2ncnc3[nH]ccc23)CC1` (some centres unmarked) [Compound I-246] yielded an IC50 of 1000 to 5000 nM. `NC1(C(=O)N[C@@H](CCN2CCN(C(=O)CN3CCC(CN4CCN(C(=O)[C@H](NC(=O)c5cccc(C6CCCN(C(=O)C7CC7)C6)c5)C5CCCCC5)CC4)CC3)CC2)c2ccc(Cl)cc2)CCN(c2ncnc3[nH]ccc23)CC1` (some centres unmarked) [Compound I-247] gave an IC50 of 1000 to 5000 nM. Work on `NC1(C(=O)N[C@@H](CCN2CCC(OC3CCN(C(=O)[C@H](NC(=O)c4cccc(C5CCCN(C(=O)C6CC6)C5)c4)C4CCCCC4)CC3)CC2)c2ccc(Cl)cc2)CCN(c2ncnc3[nH]ccc23)CC1` (some centres unmarked) [Compound I-249] yielded an IC50 of 1000 to 5000 nM. Work on `NC1(C(=O)N[C@@H](CCN2CCC(OC3CCN(C(=O)[C@H](NC(=O)c4cccc(C5CCCN(C(=O)CNC6CC6)C5)c4)C4CCCCC4)CC3)CC2)c2ccc(Cl)cc2)CCN(c2ncnc3[nH]ccc23)CC1` (some centres unmarked) [Compound I-250] yielded an IC50 of 1000 to 5000 nM. In the case of `NC1(C(=O)N[C@@H](CCN2CCC(OC3CCN(C(=O)[C@H](NC(=O)c4cccc(C5CCCN(C(=O)CNCc6ccc(F)cc6F)C5)c4)C4CCCCC4)CC3)CC2)c2ccc(Cl)cc2)CCN(c2ncnc3[nH]ccc23)CC1` (some centres unmarked) [Compound I-251], the IC50 is reported as 500 to 1000 nM. In the case of `NC1(C(=O)N[C@@H](CCN2CCC(OC3CCN(C(=O)[C@H](NC(=O)c4cccc(C5CC5)c4F)C4CCCCC4)CC3)CC2)c2ccc(Cl)cc2)CCN(c2ncnc3[nH]ccc23)CC1` [Compound I-260], the IC50 is reported as 1000 to 5000 nM. `CCc1cccc(-c2cc(F)c(C(=O)N3CCC(CN4CCN(CC[C@H](NC(=O)C5(N)CCN(c6ncnc7[nH]ccc67)CC5)c5ccc(Cl)cc5)CC4)CC3)c(F)c2)c1` [Compound I-263] was tested, and the IC50 was 1000 to 5000 nM. `C[C@@H]1C[C@@H](O)c2ncnc(N3CCN(C(=O)[C@H](CNCCNC(=O)CN4CCC(OC5CCN(C(=O)[C@H](NC(=O)c6cccc(C7CCCN(C(=O)C8CC8)C7)c6F)C6CCCCC6)CC5)CC4)c4ccc(Cl)cc4)CC3)c21` (some centres unmarked) [Compound I-264] was tested, and the IC50 was 1000 to 5000 nM. `C[C@@H]1C[C@@H](O)c2ncnc(N3CCN(C(=O)[C@H](CCN4CCC(CN5CCN(C(=O)[C@H](NC(=O)c6cccc(C7CCCN(C(=O)C8CC8)C7)c6)C6CCCCC6)CC5)CC4)c4ccc(Cl)cc4)CC3)c21` (some centres unmarked) [Compound I-265] gave an IC50 of 1000 to 5000 nM. With `C[C@@H]1C[C@@H](O)c2ncnc(N3CCN(C(=O)[C@@H](CCN4CCC(CN5CCN(C(=O)[C@H](NC(=O)c6cccc(C7CCCN(C(=O)C8CC8)C7)c6)C6CCCCC6)CC5)CC4)c4ccc(Cl)cc4)CC3)c21` (some centres unmarked) [Compound I-266] the IC50 was 1000 to 5000 nM. `NC1(C(=O)N[C@@H](CCN2CCN(C(=O)CN3CCC(OC4CCN(C(=O)[C@H](NC(=O)c5cccc(C6CC6)c5F)C5CCCCC5)CC4)CC3)CC2)c2ccc(Cl)cc2)CCN(c2ncnc3[nH]ccc23)CC1` [Compound I-270] gave an IC50 of 1000 to 5000 nM. `C[C@@H]1C[C@@H](O)c2ncnc(N3CCN(C(=O)[C@H](CCN4CCC(CN5CCN(C(=O)[C@H](NC(=O)c6cccc(C7CCCN(C(=O)CNC8CC8)C7)c6)C6CCCCC6)CC5)CC4)c4ccc(Cl)cc4)CC3)c21` (some centres unmarked) [Compound I-272] was tested, and the IC50 was 1000 to 5000 nM. Compound `C[C@@H]1C[C@@H](O)c2ncnc(N3CCN(C(=O)[C@@H](CCN4CCC(CN5CCN(C(=O)[C@H](NC(=O)c6cccc(C7CCCN(C(=O)CNC8CC8)C7)c6)C6CCCCC6)CC5)CC4)c4ccc(Cl)cc4)CC3)c21` (some centres unmarked) [Compound I-273] has an IC50 of 500 to 1000 nM. Compound `C[C@@H]1C[C@@H](O)c2ncnc(N3CCN(C(=O)[C@H](CCN4CCC(CN5CCN(C(=O)[C@H](NC(=O)c6cccc(C7CCCN(C(=O)CNCc8ccc(F)cc8F)C7)c6)C6CCCCC6)CC5)CC4)c4ccc(Cl)cc4)CC3)c21` (some centres unmarked) [Compound I-274] has an IC50 of 500 to 1000 nM. Compound `C[C@@H]1C[C@@H](O)c2ncnc(N3CCN(C(=O)[C@@H](CCN4CCC(CN5CCN(C(=O)[C@H](NC(=O)c6cccc(C7CCCN(C(=O)CNCc8ccc(F)cc8F)C7)c6)C6CCCCC6)CC5)CC4)c4ccc(Cl)cc4)CC3)c21` (some centres unmarked) [Compound I-275] has an IC50 of 500 to 1000 nM. `C[C@@H]1C[C@@H](O)c2ncnc(N3CCN(C(=O)[C@H](CN4CCC(OC5CCN(C(=O)[C@H](NC(=O)OC(C)(C)C)C6CCCCC6)CC5)CC4)c4ccc(Cl)cc4)CC3)c21` [Compound I-276] was tested, and the IC50 was 1000 to 5000 nM. `CCc1cccc(-c2cc(F)c(C(=O)N3CCC(OC4CCN(CC[C@H](NC(=O)C5(N)CCN(c6ncnc7[nH]ccc67)CC5)c5ccc(Cl)cc5)CC4)CC3)c(F)c2)c1` [Compound I-280] was tested, and the IC50 was 1000 to 5000 nM. `C=CC(=O)N1CCN(c2ccc(CCC(=O)N3CCC(CN4CCN(CC[C@H](NC(=O)C5(N)CCN(c6ncnc7[nH]ccc67)CC5)c5ccc(Cl)cc5)CC4)CC3)o2)C(=O)C1` [Compound I-284] showed an IC50 of 1000 to 5000 nM. With `C=CC(=O)N1CCN(c2ccc(CCC(=O)N3CCC(OC4CCN(CC[C@H](NC(=O)C5(N)CCN(c6ncnc7[nH]ccc67)CC5)c5ccc(Cl)cc5)CC4)CC3)o2)C(=O)C1` [Compound I-285] the IC50 was over 10000 nM. With `C=CC(=O)N1CCN(c2ccc(CCC(=O)N3CCN(CC4CCN(CC[C@H](NC(=O)C5(N)CCN(c6ncnc7[nH]ccc67)CC5)c5ccc(Cl)cc5)CC4)CC3)o2)C(=O)C1` [Compound I-286] the IC50 was 1000 to 5000 nM.
